Measurements from US11466031B2, “Polymorphic forms of bictegravir and its sodium salt” (Mylan Laboratories Limited, priority 2018, dated 2022).

Key:
[1] = Storage stability: polymorph integrity by PXRD; format: physicochemical
Description: The crystalline forms of bictegravir disclosed herein may be characterized by X-ray powder diffraction pattern (PXRD). Samples of each polymorph were analyzed on a BRUKER D-8 Discover powder diffractometer equipped with goniometer of θ/2θ configuration and Lynx Eye detector. The Cu-anode X-ray tube was operated at 40 kV and 30 mA. The experiments were conducted over the 2θ range of 2.0°-50.0°, 0.030° step size and 0.4 seconds step time. […] The samples were analyzed by PXRD for polymorph integrity.

[2] = Storage stability: HPLC purity; format: physicochemical
[3] = at 25° C./60% RH, 6 months, listed as Form M2
[4] = at 40° C./75% RH, 6 months, listed as Form M2
[5] = at 25° C./60% RH, 6 months, listed as crystalline bictegravir Form M1
[6] = at 40° C./75% RH, 6 months, listed as crystalline bictegravir Form M1
[7] = at 25° C./60% RH, 6 months, listed as amorphous bictegravir sodium
[8] = at 40° C./75% RH, 6 months, listed as amorphous bictegravir sodium

PXRD ([1]; at 25° C./60% RH, 1 months)	PXRD ([1]; at 25° C./60% RH, 2 months)	PXRD ([1]; at 25° C./60% RH, 3 months)	PXRD ([1]; at 25° C./60% RH, 6 months)	PXRD ([1]; at 25° C./60% RH, Initial)	PXRD ([1]; at 40° C./75% RH, 1 months)	PXRD ([1]; at 40° C./75% RH, 2 months)	PXRD ([1]; at 40° C./75% RH, 3 months)	PXRD ([1]; at 40° C./75% RH, 6 months)	PXRD ([1]; at 40° C./75% RH, Initial)	HPLC purity ([2]; at 25° C./60% RH, 1 months)	HPLC purity ([2]; at 25° C./60% RH, 2 months)	HPLC purity ([2]; at 25° C./60% RH, 3 months)	HPLC purity ([2]; at 25° C./60% RH, 6 months)	HPLC purity ([2]; at 25° C./60% RH, Initial)	HPLC purity ([2]; at 40° C./75% RH, 1 months)	HPLC purity ([2]; at 40° C./75% RH, 2 months)	HPLC purity ([2]; at 40° C./75% RH, 3 months)	HPLC purity ([2]; at 40° C./75% RH, 6 months)	HPLC purity ([2]; at 40° C./75% RH, Initial)	Compound	also measured
Stable	Stable	Stable	Stable	Crystalline	Stable	Stable	Stable	Stable	Crystalline	99.68	99.67	99.73	99.73	99.68	99.67	99.69	99.73	99.71	99.68	O=C(NCc1c(F)cc(F)cc1F)c1cn2c(c(O)c1=O)C(=O)N1[C@H]3CC[C@H](C3)O[C@@H]1C2 [Bictegravir Form M2, bictegravir]	PXRD [1, 3]: no change; PXRD [1, 4]: no change; HPLC purity [2, 3]: no change; HPLC purity [2, 4]: no change
Stable	Stable	Stable	Stable	Crystalline	Stable	Stable	Stable	Stable	Crystalline	99.68	99.67	99.73	99.73	99.66	99.67	99.69	99.80	99.78	99.66	O=C(NCc1c(F)cc(F)cc1F)c1cn2c(c(O)c1=O)C(=O)N1[C@H]3CC[C@H](C3)O[C@@H]1C2 [Bictegravir Form M1, bictegravir]	PXRD [1, 5]: no change; PXRD [1, 6]: no change; HPLC purity [2, 5]: no change; HPLC purity [2, 6]: no change
Stable	Stable	Stable	Stable	Amorphous	Stable	Stable	Stable	Stable	Amorphous	99.68	99.52	99.54	99.46	99.48	99.68	99.54	99.48	99.31	99.48	O=C(NCc1c(F)cc(F)cc1F)c1cn2c(c([O-])c1=O)C(=O)N1[C@@H]3CC[C@@H](C3)O[C@H]1C2.[Na+] [Bictegravir Sodium Amorphous form, (2R,5S,13aR)-2,5-Methanopyrido[1′,2′:4,5]pyrazino[2,1-b][1,3]oxazepine-10-carboxamide, 2,3,4,5,7,9, 13,13a-octahydro-8-hydroxy-7,9-dioxo-N-[(2,4,6-trifluorophenyl)methyl]-, sodium salt (1:1)]	PXRD [1, 7]: no change; PXRD [1, 8]: no change; HPLC purity [2, 7]: no change; HPLC purity [2, 8]: no change
